Patent US11339447B2, “System and method for determining Kareniticin sensitivity on cancer” (CROWN BIOSCIENCE, INC. (TAICANG), priority 2017, dated 2022)

Assays:
[1] = prior studies, cited from earlier work
[2] = tested on: 48 PDX models in 8 cancers; assay: karenitecin treatment of a cohort of 48 PDX models; format: in vivo; conditions: number of the 48 PDX models in 8 cancers; treatment for two weeks
Experimental: (§1) A cohort of 48 PDX models in 8 cancers were used in this study. Those models were subject to karenitecin treatment for two weeks. Both tumor growth inhibition (TGI) and median AUC (area under curve) ratio, a newly developed metric to evaluate drug efficacy, were calculated (Table 1). Those models can be divided into two categories according to TGI and median AUC ratio.

PDX LU1542 = assay: karenitecin treatment of PDX model; format: in vivo; parameters: key to Response: responder: responded to karenitecin treatment (AUC<0.5 and TGI>0.8); non_responder: did not respond to karenitecin treatment (AUC>0.5 and TGI<0.6); conditions: karenitecin treatment for two weeks
Experimental: as §1

PDX LU2071 = assay: karenitecin treatment of PDX model; format: in vivo; parameters: key to Response: responder: responded to karenitecin treatment (AUC<0.5 and TGI>0.8); non_responder: did not respond to karenitecin treatment (AUC>0.5 and TGI<0.6); conditions: karenitecin treatment for two weeks
Experimental: as §1

PDX CR2520 = assay: karenitecin treatment of PDX model; format: in vivo; parameters: key to Response: responder: responded to karenitecin treatment (AUC<0.5 and TGI>0.8); non_responder: did not respond to karenitecin treatment (AUC>0.5 and TGI<0.6); conditions: karenitecin treatment for two weeks
Experimental: as §1

PDX GA3055 = assay: karenitecin treatment of PDX model; format: in vivo; parameters: key to Response: responder: responded to karenitecin treatment (AUC<0.5 and TGI>0.8); non_responder: did not respond to karenitecin treatment (AUC>0.5 and TGI<0.6); conditions: karenitecin treatment for two weeks
Experimental: as §1

PDX PA3029 = assay: karenitecin treatment of PDX model; format: in vivo; parameters: key to Response: responder: responded to karenitecin treatment (AUC<0.5 and TGI>0.8); non_responder: did not respond to karenitecin treatment (AUC>0.5 and TGI<0.6); conditions: karenitecin treatment for two weeks
Experimental: as §1

PDX LU1429 = assay: karenitecin treatment of PDX model; format: in vivo; parameters: key to Response: responder: responded to karenitecin treatment (AUC<0.5 and TGI>0.8); non_responder: did not respond to karenitecin treatment (AUC>0.5 and TGI<0.6); conditions: karenitecin treatment for two weeks
Experimental: as §1

PDX ES0212 = assay: karenitecin treatment of PDX model; format: in vivo; parameters: key to Response: responder: responded to karenitecin treatment (AUC<0.5 and TGI>0.8); non_responder: did not respond to karenitecin treatment (AUC>0.5 and TGI<0.6); conditions: karenitecin treatment for two weeks
Experimental: as §1

PDX GA0087 = assay: karenitecin treatment of PDX model; format: in vivo; parameters: key to Response: responder: responded to karenitecin treatment (AUC<0.5 and TGI>0.8); non_responder: did not respond to karenitecin treatment (AUC>0.5 and TGI<0.6); conditions: karenitecin treatment for two weeks
Experimental: as §1

PDX ES2267 = assay: karenitecin treatment of PDX model; format: in vivo; parameters: key to Response: responder: responded to karenitecin treatment (AUC<0.5 and TGI>0.8); non_responder: did not respond to karenitecin treatment (AUC>0.5 and TGI<0.6); conditions: karenitecin treatment for two weeks
Experimental: as §1

PDX ES0042 = assay: karenitecin treatment of PDX model; format: in vivo; parameters: key to Response: responder: responded to karenitecin treatment (AUC<0.5 and TGI>0.8); non_responder: did not respond to karenitecin treatment (AUC>0.5 and TGI<0.6); conditions: karenitecin treatment for two weeks
Experimental: as §1

PDX CR2545 = assay: karenitecin treatment of PDX model; format: in vivo; parameters: key to Response: responder: responded to karenitecin treatment (AUC<0.5 and TGI>0.8); non_responder: did not respond to karenitecin treatment (AUC>0.5 and TGI<0.6); conditions: karenitecin treatment for two weeks
Experimental: as §1

PDX OV1658 = assay: karenitecin treatment of PDX model; format: in vivo; parameters: key to Response: responder: responded to karenitecin treatment (AUC<0.5 and TGI>0.8); non_responder: did not respond to karenitecin treatment (AUC>0.5 and TGI<0.6); conditions: karenitecin treatment for two weeks
Experimental: as §1

PDX LU1868 = assay: karenitecin treatment of PDX model; format: in vivo; parameters: key to Response: responder: responded to karenitecin treatment (AUC<0.5 and TGI>0.8); non_responder: did not respond to karenitecin treatment (AUC>0.5 and TGI<0.6); conditions: karenitecin treatment for two weeks
Experimental: as §1

PDX LU6429 = assay: karenitecin treatment of PDX model; format: in vivo; parameters: key to Response: responder: responded to karenitecin treatment (AUC<0.5 and TGI>0.8); non_responder: did not respond to karenitecin treatment (AUC>0.5 and TGI<0.6); conditions: karenitecin treatment for two weeks
Experimental: as §1

PDX LU1215 = assay: karenitecin treatment of PDX model; format: in vivo; parameters: key to Response: responder: responded to karenitecin treatment (AUC<0.5 and TGI>0.8); non_responder: did not respond to karenitecin treatment (AUC>0.5 and TGI<0.6); conditions: karenitecin treatment for two weeks
Experimental: as §1

PDX CR6249 = assay: karenitecin treatment of PDX model; format: in vivo; parameters: key to Response: responder: responded to karenitecin treatment (AUC<0.5 and TGI>0.8); non_responder: did not respond to karenitecin treatment (AUC>0.5 and TGI<0.6); conditions: karenitecin treatment for two weeks
Experimental: as §1

PDX GA0098 = assay: karenitecin treatment of PDX model; format: in vivo; parameters: key to Response: responder: responded to karenitecin treatment (AUC<0.5 and TGI>0.8); non_responder: did not respond to karenitecin treatment (AUC>0.5 and TGI<0.6); conditions: karenitecin treatment for two weeks
Experimental: as §1

## CC[C@@]1(O)C(=O)OCc2c1cc1n(c2=O)Cc2c-1nc1ccccc1c2CC[Si](C)(C)C [karenitecin]
[1]; compared with irinotecan
  incidence of severe diarrhea: lower
[1]; compared with topotecan
  incidence and severity of anemia, neutropenia and thrombocytopenia: lower
[2]
  models did not respond to karenitecin treatment (AUC>0.5 and TGI<0.6): 17
  models responded to karenitecin treatment (AUC<0.5 and TGI>0.8): Thirty-one
PDX LU1542
  Median AUC ratio: −3.610
  Response: responder
  TGI: 1.195
PDX LU2071
  Median AUC ratio: 0.037
  Response: responder
  TGI: 1.099
PDX CR2520
  Median AUC ratio: 0.914
  Response: non_responder
  TGI: 0.288
PDX GA3055
  Median AUC ratio: −0.072
  Response: responder
  TGI: 1.215
PDX PA3029
  Median AUC ratio: 0.768
  Response: non_responder
  TGI: 0.423
PDX LU1429
  Median AUC ratio: 0.076
  Response: responder
  TGI: 1.054
PDX ES0212
  Median AUC ratio: 0.061
  Response: responder
  TGI: 1.017
PDX GA0087
  Median AUC ratio: −1.097
  Response: responder
  TGI: 1.316
PDX ES2267
  Median AUC ratio: −0.288
  Response: responder
  TGI: 1.240
PDX ES0042
  Median AUC ratio: −0.100
  Response: responder
  TGI: 1.128
PDX CR2545
  Median AUC ratio: 0.597
  Response: non_responder
  TGI: 0.379
PDX OV1658
  Median AUC ratio: 0.764
  Response: non_responder
  TGI: 0.433
PDX LU1868
  Median AUC ratio: 0.915
  Response: non_responder
  TGI: 0.534
PDX LU6429
  Median AUC ratio: 1.106
  Response: non_responder
  TGI: 0.241
PDX LU1215
  Median AUC ratio: 0.232
  Response: responder
  TGI: 1.006
PDX CR6249
  Median AUC ratio: −0.712
  Response: responder
  TGI: 1.253
PDX GA0098
  Median AUC ratio: 0.512
  Response: non_responder
  TGI: 0.482
